pIC50: −log10 of the molar value.

The target in the first assay is T1, HCV polymerase (Hepatitis C virus genotype 1b, UniProt P26663).
T1 construct: 2.5 pmoles (0.15 μg) HCV polymerase protein in a final volume of 75 μL
T1 sequence (P26663 2420-3010): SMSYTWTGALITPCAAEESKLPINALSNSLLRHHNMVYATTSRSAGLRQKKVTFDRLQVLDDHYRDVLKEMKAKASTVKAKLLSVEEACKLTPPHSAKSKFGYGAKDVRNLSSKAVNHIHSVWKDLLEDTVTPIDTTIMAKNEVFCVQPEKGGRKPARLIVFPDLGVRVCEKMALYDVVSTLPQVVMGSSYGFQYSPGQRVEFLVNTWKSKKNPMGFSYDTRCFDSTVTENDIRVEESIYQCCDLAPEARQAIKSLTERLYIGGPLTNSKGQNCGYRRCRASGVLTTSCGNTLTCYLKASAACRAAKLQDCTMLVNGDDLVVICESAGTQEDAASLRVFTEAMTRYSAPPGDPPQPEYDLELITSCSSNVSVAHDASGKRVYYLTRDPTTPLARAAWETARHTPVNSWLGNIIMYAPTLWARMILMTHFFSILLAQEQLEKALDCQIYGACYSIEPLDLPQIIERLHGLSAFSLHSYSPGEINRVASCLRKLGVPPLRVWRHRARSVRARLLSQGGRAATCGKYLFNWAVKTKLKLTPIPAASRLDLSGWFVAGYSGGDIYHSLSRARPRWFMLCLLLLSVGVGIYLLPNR
Description: HCV polymerase primer/template-directed transcription assay (32P-GTP incorporation, filter binding). Format: biochemical. The note with it: @ 20 uM compound; given where IC50 was impractical to calculate; read-out: percent inhibition. In a few lines: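 Recombinant genotype 1b polymerase (30 nM) extended biotin-dG12 primer on poly(rC)300 template with 1 μM GTP plus α-32P-GTP, pH 7.2, 10 mM MgCl2, 30 min at 30° C, 1% DMSO final. Products captured on DE filters and counted. IC50 fitted from triplicate cpm, with a tight-binding correction applied below 200 nM.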
A word on the inhibition: it is how much of the control response was suppressed. Regarding `COC(=O)Cc1cccc(CCC2(C3CCCC3)CC(=O)CC(=O)O2)c1` (stereo not shown) [A(67), {3-[2-(2-Cyclopentyl-4,6-dioxo-tetrahydro-pyran-2-yl)-ethyl]-phenyl}-acetic acid methyl ester], the inhibition at 20 µM was 24%. Take `O=C1CC(=O)OC(CCc2ccccn2)(C2CCCC2)C1` (stereo not shown) [A(82), 6-Cyclopentyl-6-(2-pyridin-2-yl-ethyl)-dihydro-pyran-2,4-dione]: the inhibition at 20 µM was 11%.

Still in this assay, the particulars now being: @ 50 uM compound; given where IC50 was impractical to calculate; read-out: percent inhibition.
`COc1ccc(CCC2(C3CCCC3)CC(=O)CC(=O)O2)c(C(C)=O)c1` (stereo not shown) [A(61), 6-[2-(2-acetyl-4-methoxyphenyl)ethyl]-6-cyclopentyldihydro-2H-pyran-2,4(3H)-dione]: the inhibition at 50 µM is 40%.

The same assay, now with this note: IC50, recombinant HCV polymerase; 30 minutes at 30° C.; concentration giving 50% inhibition of polymerase-directed transcription.
As a reminder, the pIC50 is the IC50 on a negative log10 scale, so that one unit is a factor of ten. As to `CC(C)(C#N)c1ccc(CCC2(C3CCCC3)CC(=O)CC(=O)O2)cc1F` (stereo not shown) [A(81), 2-{4-[2-(2-Cyclopentyl-4,6-dioxo-tetrahydro-pyran-2-yl)-ethyl]-2-fluoro-phenyl}-2-methyl-propionitrile], the pIC50 is 6.85.

Staying with this assay, now noted: recombinant HCV polymerase; 30 minutes at 30° C.; concentration giving 50% inhibition of polymerase-directed transcription; read-out: IC50.
On to `COC(=O)CC(=O)CC(=O)C(C)(C)Oc1ccc(CCC2(C3CCCC3)CC(=O)CC(=O)O2)cc1F` (stereo not shown) [A(52), 6-{4-[2-(2-Cyclopentyl-4,6-dioxo-tetrahydro-pyran-2-yl)-ethyl]-2-fluoro-phenoxy}-6-methyl-3,5-dioxo-heptanoic acid methyl ester], for which the pIC50 is 5.82. Take `COC(=O)C(C)(C)Oc1ccc(CCC2(C3CCCC3)CC(=O)CC(=O)O2)cc1Cl` (stereo not shown) [A(53), 2-{2-Chloro-4-[2-(2-cyclopentyl-4,6-dioxo-tetrahydro-pyran-2-yl)-ethyl]-phenoxy}-2-methyl-propionic acid methyl ester]: the pIC50 was 5.48. Consider `O=C(O)COc1ccc(CCC2(C3CCCC3)CC(=O)CC(=O)O2)cc1Cl` (stereo not shown) [A(54)], for which the negative-log IC50 (pIC50) was 5.54. Still for that read-out and setting: next, `COC(=O)C(C)(C)Oc1ccc(CCC2(C3CCCC3)CC(=O)CC(=O)O2)cc1F` (stereo not shown) [A(55), 2-{4-[2-(2-Cyclopentyl-4,6-dioxo-tetrahydro-pyran-2-yl)-ethyl]-2-fluoro-phenoxy}-2-methyl-propionic acid methyl ester]: 4.95; `Cc1nc(C(C)(C)c2ccc(CCC3(C4CCCC4)CC(=O)CC(=O)O3)cc2)no1` (stereo not shown) [A(56), 6-Cyclopentyl-6-(2-{4-[1-methyl-1-(5-methyl-[1,2,4]oxadiazol-3-yl)-ethyl]-phenyl}-ethyl)-dihydro-pyran-2,4-dione]: 4.41; `O=C1CC(=O)OC(CCCCC2CCCCC2)(C2CCCC2)C1` (stereo not shown) [A(57), 6-(4-Cyclohexyl-butyl)-6-cyclopentyl-dihydro-pyran-2,4-dione]: 5.20. On the same count and under the same terms, then `O=C1CC(=O)OC(CCc2ccc(OC(F)F)cc2)(C2CCCC2)C1` (stereo not shown) [A(58), 6-Cyclopentyl-6-[2-(4-difluoromethoxy-phenyl)-ethyl]-dihydro-pyran-2,4-dione], with 5.19. On the same count and under the same terms, then `O=C1CC(=O)OC(CCc2ccc3c(c2)OC(F)(F)C(F)(F)O3)(C2CCCC2)C1` (stereo not shown) [A(59), 6-Cyclopentyl-6-[2-(2,2,3,3-tetrafluoro-2,3-dihydro-benzo[1,4]dioxin-6-yl)-ethyl]-dihydro-pyran-2,4-dione], with 5.49; and `CCCOc1ccc(CCC2(C3CCCC3)CC(=O)CC(=O)O2)cc1` (stereo not shown) [A(60), 6-Cyclopentyl-6-[2-(4-propoxy-phenyl)-ethyl]-dihydro-pyran-2,4-dione], with 5.06. In the case of `CCC(=O)c1cc(OC)ccc1CCC1(C2CCCC2)CC(=O)CC(=O)O1` (stereo not shown) [A(62), 6-cyclopentyl-6-[2-(4-methoxy-2-propionylphenyl)ethyl]dihydro-2H-pyran-2,4(3H)-dione], the pIC50 is 5.08. Still for that read-out and setting: next, `CC(C)c1ccc(CCC2(C3CCCC3)CC(=O)CC(=O)O2)cc1Cl` (stereo not shown) [A(63), 6-[2-(3-chloro-4-isopropylphenyl)ethyl]-6-cyclopentyldihydro-2H-pyran-2,4(3H)-dione]: 4.96; `CC(C)c1ccc(CCC2(C3CCCC3)CC(=O)CC(=O)O2)cc1F` (stereo not shown) [A(64), 6-cyclopentyl-6-[2-(3-fluoro-4-isopropylphenyl)ethyl]dihydro-2H-pyran-2,4(3H)-dione]: 5.40; `CCc1cc(CCC2(C3CCCC3)CC(=O)CC(=O)O2)ccc1F` (stereo not shown) [A(65), 6-cyclopentyl-6-[2-(3-ethyl-4-fluorophenyl)ethyl]dihydro-2H-pyran-2,4(3H)-dione]: 5.89.

With `CCc1cccc(CCC2(C3CCCC3)CC(=O)CC(=O)O2)c1` (stereo not shown) [A(66), 6-Cyclopentyl-6-[2-(3-ethyl-phenyl)-ethyl]-dihydro-pyran-2,4-dione], the negative logarithm of the IC50 (pIC50) was 5.44.

Regarding `CC1(C)C(=O)Oc2ccc(CCC3(C4CCCC4)CC(=O)CC(=O)O3)cc21` (stereo not shown) [A(68), 6-Cyclopentyl-6-[2-(3,3-dimethyl-2-oxo-2,3-dihydro-benzofuran-5-yl)-ethyl]-dihydro-pyran-2,4-dione], the pIC50 is 5.47. Still for that read-out and setting: next, `COC(=O)C1(c2cccc(CCC3(C4CCCC4)CC(=O)CC(=O)O3)c2)CC1` (stereo not shown) [A(69), 1-{3-[2-(2-Cyclopentyl-4,6-dioxo-tetrahydro-pyran-2-yl)-ethyl]-phenyl}-cyclopropanecarboxylic acid methyl ester]: 5.00; `N#CCc1cccc(CCC2(C3CCCC3)CC(=O)CC(=O)O2)c1` (stereo not shown) [A(70), {3-[2-(2-Cyclopentyl-4,6-dioxo-tetrahydro-pyran-2-yl)-ethyl]-phenyl}-acetonitrile]: 5.03; `CC(C)(CNC(=O)c1cc[nH]n1)c1cccc(CCC2(C3CCCC3)CC(=O)CC(=O)O2)c1` (stereo not shown) [A(71), 1H-Pyrazole-3-carboxylic acid (2-{3-[2-(2-cyclopentyl-4,6-dioxo-tetrahydro-pyran-2-yl)-ethyl]-phenyl}-2-methyl-propyl)-amide]: 5.72. Consider `CC(C)(CNC(=O)CCc1ccco1)c1cccc(CCC2(C3CCCC3)CC(=O)CC(=O)O2)c1` (stereo not shown) [A(72), N-(2-{3-[2-(2-Cyclopentyl-4,6-dioxo-tetrahydro-pyran-2-yl)-ethyl]-phenyl}-2-methyl-propyl)-3-furan-2-yl-propionamide], for which the pIC50 is 5.82. Consider `Cc1cc(C(=O)NCC(C)(C)c2cccc(CCC3(C4CCCC4)CC(=O)CC(=O)O3)c2)oc1C` (stereo not shown) [A(73), 4,5-Dimethyl-furan-2-carboxylic acid (2-{3-[2-(2-cyclopentyl-4,6-dioxo-tetrahydro-pyran-2-yl)-ethyl]-phenyl}-2-methyl-propyl)-amide], for which the pIC50 is 5.48. Still for that read-out and setting: next, `CC(C)(CNC(=O)c1cnc(O)cn1)c1cccc(CCC2(C3CCCC3)CC(=O)CC(=O)O2)c1` (stereo not shown) [A(74), 5-Hydroxy-pyrazine-2-carboxylic acid (2-{3-[2-(2-cyclopentyl-4,6-dioxo-tetrahydro-pyran-2-yl)-ethyl]-phenyl}-2-methyl-propyl)-amide]: 5.92; `N#CCC(=O)c1ccc(CCC2(C3CCCC3)CC(=O)CC(=O)O2)cc1` (stereo not shown) [A(75), 3-{4-[2-(2-Cyclopentyl-4,6-dioxo-tetrahydro-pyran-2-yl)-ethyl]-phenyl}-3-oxo-propionitrile]: 5.15. With `CC1(C)COc2ccc(CCC3(C4CCCC4)CC(=O)CC(=O)O3)cc21` (stereo not shown) [A(76), 6-Cyclopentyl-6-[2-(3,3-dimethyl-2,3-dihydro-benzofuran-5-yl)-ethyl]-dihydro-pyran-2,4-dione], the pIC50 was 5.24. Still for that read-out and setting: next, `O=C1CC(=O)OC(CCc2ccc(Cc3nccs3)c(F)c2)(C2CCCC2)C1` (stereo not shown) [A(77), 6-Cyclopentyl-6-[2-(3-fluoro-4-thiazol-2-ylmethyl-phenyl)-ethyl]-dihydro-pyran-2,4-dione]: 4.62; `O=C1CC(=O)OC(CCc2cccc(Cc3nccs3)c2)(C2CCCC2)C1` (stereo not shown) [A(78), 6-Cyclopentyl-6-[2-(3-thiazol-2-ylmethyl-phenyl)-ethyl]-dihydro-pyran-2,4-dione]: 4.68. Still for that read-out and setting: next, `O=C1CC(=O)OC(CCc2ccc(CCO)cc2)(C2CCCC2)C1` (stereo not shown) [A(79), 6-Cyclopentyl-6-{2-[4-(2-hydroxy-ethyl)-phenyl]-ethyl}-dihydro-pyran-2,4-dione]: 6.00; `O=C1CC(=O)OC(CCc2cccc(CCO)c2)(C2CCCC2)C1` (stereo not shown) [A(80), 6-Cyclopentyl-6-{2-[3-(2-hydroxy-ethyl)-phenyl]-ethyl}-dihydro-pyran-2,4-dione]: 4.70; `CCC(CC)Oc1ccc(CCC2(C3CCCC3)CC(=O)CC(=O)O2)cc1Cl` (stereo not shown) [A(83), 6-{2-[3-Chloro-4-(1-ethyl-propoxy)-phenyl]-ethyl}-6-cyclopentyl-dihydro-pyran-2,4-dione]: 5.27. Take `CC(=O)c1ccc(CCC2(C3CCCC3)CC(=O)CC(=O)O2)s1` (stereo not shown) [A(84), 6-[2-(5-Acetyl-thiophen-2-yl)-ethyl]-6-cyclopentyl-dihydro-pyran-2,4-dione]: the pIC50 is 5.17. With `CNS(=O)(=O)c1ccc(CCC2(C3CCCC3)CC(=O)CC(=O)O2)cc1F` (stereo not shown) [A(85), 4-[2-(2-Cyclopentyl-4,6-dioxo-tetrahydro-pyran-2-yl)-ethyl]-2-fluoro-methyl-benzenesulfonamide], the pIC50 is 4.91. Still for that read-out and setting: next, `N#CC1(c2ccc(CCC3(C4CCCC4)CC(=O)CC(=O)O3)cc2F)CC1` (stereo not shown) [A(86), 1-{4-[2-(2-Cyclopentyl-4,6-dioxo-tetrahydro-pyran-2-yl)-ethyl]-2-fluoro-phenyl}-cyclopropanecarbonitrile]: 6.40; `CCc1cc(CCC2(C3CCCC3)CC(=O)CC(=O)O2)ccc1N(C)S(C)(=O)=O` (stereo not shown) [A(87)]: 6.05.

Regarding `CN(c1ccc(CCC2(C3CCCC3)CC(=O)CC(=O)O2)cc1)S(C)(=O)=O` (stereo not shown) [A(88), N-{4-[2-(2-cyclopentyl-4,6-dioxotetrahydro-2H-pyran-2-yl)ethyl]phenyl}-N-methylmethanesulfonamide], the pIC50 was 5.64.

(Values after patent US7473790B2 (Pfizer Inc., priority 2003, dated 2009).)
